The values that follow come from article PMC6326999, “Functionalized Magnetic Bacterial Cellulose Beads as Carrier for Lecitase® Ultra Immobilization” (Applied Biochemistry and Biotechnology, 2018).

The assay concerns T1, Lecitase® Ultra (LU).
T1 construct: gene LIP; commercial preparation (Sigma-Aldrich), free enzyme
The assay is described as follows: absorbance at […] nm, hydrolysis initial rates, non-linear Michaelis-Menten fit. Format: biochemical. The note with it: free enzyme; 50 mM Tris-Cl pH 8.5, 0.25% Triton X-100, 30 °C (standard assay); commercial preparation; kcat column headed 'Kcat × 10^3 (s^-1)'.

The Km is the substrate concentration at which the rate is half of its maximum. Consider `CCCCCCCCCCCCCCCC(=O)Oc1ccc([N+](=O)[O-])cc1` [4-nitrophenol palmitate], for which the Km was determined as 450 ± 50 µM.
